This is an account of results in patent US20050043280A1, “Use of active ingredients having a mu-opioid receptor agonist action and an opiod receptor antognist action, as combination drugs for the treatment of cancer” (priority 2001, published 2005).

For data set [1], the system named is MCF-7 cells. The conditions noted are these: cited from earlier work.
Data set [2] relates to MCF-7 cells. The experiment in a line: DNA cleavage rate with apoptosis assay kit (FIG. 4). Format: cell-based, human. The conditions noted are these: 500 μmol; incubation for 24 hours. On the procedure: In order to characterize apoptosis (cell death) in more detail, a commercial apoptosis assay kit that is in common use in science was used to measure the rate of DNA cleavage (FIG. 4).
FIG. 4 DNA cleavage rate after incubation of MCF-7 cells for 24 hours with the active ingredients at the dosages indicated on the abscissa. Means±SEM from 6 independent experiments. DNA cleavage was measured by assaying the mono- and oligonucleosomes with an apoptosis detection kit containing antihistones and anti-DNA antibodies.

Data set [3] concerns MCF-7 cells. Nature of the data set: Cytotoxic effects, survival rate of the cells (FIG. 3B). To be noted: standardized to untreated control cells = 100%; combinations with 100 μmol DAMGO. An excerpt:
The same cell line was used to determine the cytotoxic effects of these active ingredients by determining the rate of survival of the cells (FIG. 3B). […] TNFα was used as a positive control.
The survival rate was standardized to the number of untreated control cells representing 100%. Means±SEM from 4 repeat experiments.

The test system of data set [4] is human MCF-7 breast cancer cells. Nature of the data set: Cell proliferation test (FIG. 3A). Format: cell-based. The conditions noted are these: for proliferation of MCF-7 cells compared to the untreated control: 100 or 500 μmol DAMGO, 100 μmol naloxone, 500 μmol DAMGO+100 μmol naloxone. An excerpt: FIG. 3A Proliferation of MCF-7 cells in vitro after treatment with 100 μmol DAMGO (solid triangles), 500 μmol DAMGO (solid squares)(left), 100 μmol naloxone (open circles) or the mixture containing 500 μmol DAMGO+100 μmol naloxone (open triangles)(right) versus untreated control cells (solid circles). Means±SEM from 4-6 repeat experiments.

Data set [5] is described as follows: Development of the body weight during treatment (FIG. 1B). To be noted: 3 weeks of treatment as in FIG. 1A. On the procedure:
In an established pharmacological animal model, naked mice (NMRI-nu/nu; Harlan, Borchen) received a subcutaneous injection containing a cell suspension (5×10^6 cells in 300 μl per mouse) of human breast carcinoma cells (MCF-7 cell line).
A total of 5×10^6 cells were injected subcutaneously per mouse. […] The animals were treated with 10 mg/kg β-estradiol valerate (i.m.) one day before and 7 and 14 days after the injection of tumor cells. […] Tumor volume=(long diameter×short diameter^2)/2.
FIG. 1B Development of the body weight during treatment. Treatment as in 1A.

For data set [6], the system named is MCF-7 cells. To be noted: 24 hours after treatment; 0.5, 1.0, 2.0 mmol; combination 0.5 mmol morphine+0.1 mmol naloxone and 1 mmol+1 mmol.
For data set [7], the system named is MCF-7 cells. The experiment in a line: Flow cytometry of annexin V and 7-AAD binding, apoptosis rate (FIG. 6). In kind it is cell-based, human. Background: In flow cytometry, cells or beads pass a laser one at a time.
Setting [8] is: 1 mmol, 24 hours after treatment (not shown).
[9] abbreviates: 2 mmol, 24 hours after treatment.
Where [10] appears, read: 3 mmol, 24 hours after treatment.

On to TNFα, for which, in data set [1], the “apoptosis in MCF-7 cells (positive control, known effect)” value is “induce apoptosis”.
For `C[C@@H](NC(=O)[C@@H](N)Cc1ccc(O)cc1)C(=O)NCC(=O)N(C)[C@@H](Cc1ccccc1)C(=O)NCCO` [DAMGO, (D-Ala2, N-Methyl-Phe4, Gly-ol5)enkephalin], the “rate of DNA cleavage compared to the untreated control” value in data set [2] is listed as “increase significantly”. Moreover, the “survival rate of MCF-7 cells (cytotoxic effect)” value in data set [3] is “concentration-dependent positive effect on the survival rate”. In data set [4], the “proliferation of MCF-7 cells compared to the untreated control” value is given as “reduced the cell division cycle substantially in a concentration-dependent fashion”. In addition, the “time at which the maximal number of cells was attained” value in data set [4] (DAMGO-treated cultures) came out at 48 h. In addition, in data set [4] (between 48 and 72 hours), the “cell death in treated cultures” value was “a fraction of the cells on DAMGO treatment died”.
Take `CN1CC[C@]23c4c5ccc(O)c4O[C@H]2[C@@H](O)C=C[C@H]3[C@H]1C5` [morphine]: the body weight entry in data set [5] is “weight loss”. Further, in data set [6], the “number of cells in G1 phase (block of cell cycle from G1 to S phase)” value is recorded as “concentration-dependent increase in the number of cells in G1 phase”. Moreover, the “number of cells in late apoptosis” value in data set [7] (setting [8]) is “no longer detectable”; in data set [7] (setting [9]), “less pronounced”; in data set [7] (setting [10]) it was “clear increase in the number of cells in late apoptosis”.
On to `C=CCN1CC[C@]23c4c5ccc(O)c4O[C@H]2C(=O)CC[C@@]3(O)[C@H]1C5` [naloxone], for which the body weight result in data set [5] is reported as “increased slightly”. Moreover, in data set [6], the “number of cells in G1 phase (block of cell cycle from G1 to S phase)” value was “block the cell cycle in a similar fashion”. The “rate of DNA cleavage compared to the untreated control” value in data set [2] was “increase significantly”. Also, the “survival rate of MCF-7 cells (cytotoxic effect)” value in data set [3] is “concentration-dependent positive effect on the survival rate”. Further, in data set [4], the “proliferation of MCF-7 cells compared to the untreated control” value was “growth-inhibitory effect”. The “number of cells in late apoptosis” value in data set [7] (setting [8]) was “no longer detectable”; in data set [7] (setting [9]), “less pronounced”; in data set [7] (setting [10]), “clear increase in the number of cells in late apoptosis”.
